Legend:
[1] = molecular target: Cyclin-dependent kinase 6/G1/S-specific cyclin-D3 (Homo sapiens, UniProt Q00534); test: CDK6/Cyclin D3 ADP-Glo Kinase Assay
Protocol: (§1) The purpose of the CDK6/Cyclin D3 assay is to evaluate the inhibition (% inhibition and IC50 values) in the presence of small molecule inhibitors by using a Luminescent based ADP-Glo assay. CDK6/Cyclin D3 catalyzes the production of ADP from ATP. ADP-Glo assay monitors ADP producing biochemical reactions. ADP-Glo is performed in 2 steps upon completion of kinase reaction: a combined termination of kinase reaction and depletion of remaining ATP in the first step, and conversion of generated ADP to ATP and the newly produced ATP to light output using luciferase/luciferin reaction in the second step. The luminescent signal generated is proportional to the ADP concentration produced and is correlated with the kinase activity. CDK6/Cychin D3 was purchased from Carna. […] The assay was initiated with the addition of ATP-containing substrate solution, following a 30-minute pre-incubation of enzyme and inhibitor at room temperature in the reaction mixture. The reaction was stopped after 90 minutes at room temperature by the addition of 10 μL of ADP-GLO Reagent. After a 90-minute incubation, 20 μL of Kinase Detection Reagent was added. Samples were incubated for 40 minutes, after which plate well luminescence was measured on a Envision microplate reader. The IC50 determinations were made from a plot of the fractional velocity as a function of inhibitor concentration fit to the 4 parameters IC50 equation.

[2] = molecular target: Cyclin-dependent kinase 1 (Homo sapiens, UniProt P06493); test: CDK1/Cyclin B1 ADP-Glo Kinase Assay
Chain of Cyclin-dependent kinase 1 (P06493 whole entry): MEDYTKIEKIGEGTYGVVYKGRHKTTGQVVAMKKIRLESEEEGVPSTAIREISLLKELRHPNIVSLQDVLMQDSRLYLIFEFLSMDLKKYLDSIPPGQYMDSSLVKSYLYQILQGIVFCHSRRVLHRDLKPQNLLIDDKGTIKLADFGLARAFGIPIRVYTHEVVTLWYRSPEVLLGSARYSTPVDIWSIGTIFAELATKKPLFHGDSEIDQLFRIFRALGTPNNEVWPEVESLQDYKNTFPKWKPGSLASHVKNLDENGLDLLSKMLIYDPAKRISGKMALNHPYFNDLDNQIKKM
Protocol: as §1, with “CDK1/Cyclin Bi” for “the CDK6/Cyclin D3”, “values)” for “values) in the presence”, “CDK1/Cyclin B1” for “CDK6/Cyclin D3”, “CDK1/Cyclin B1” for “CDK6/Cychin D3”, “Carna (Cat 04-102).” for “Carna.”, “90 minute” for “90-minute”

[3] = molecular target: Cyclin-dependent kinase 2/G1/S-specific cyclin-E1 (Homo sapiens, UniProt P24941); test: CDK2/Cyclin E1 ADP-Glo Kinase Assay
Protocol: The purpose of CDK2/Cyclin El assay is to evaluate the inhibition (% inhibition and IC50 values) of small molecule inhibitors by using a Luminescent based ADP-Glo assay. CDK2/Cyclin El full length catalyzes the production of ADP from ATP. ADP-Glo assay monitors ADP producing biochemical reactions. ADP-Glo is performed in 2 steps upon completion of kinase reaction: a combined termination of kinase reaction and depletion of remaining ATP in the first step, and conversion of generated ADP to ATP and the newly produced ATP to light output using luciferase/luciferin reaction in the second step. The luminescent signal generated is proportional to the ADP concentration produced and is correlated with the kinase activity. CDK2/Cyclin E1 was purchased from Eurofins (Cat 14-475M). […] The assay was initiated with the addition of ATP-containing substrate solution, following a 30-minute pre-incubation of enzyme and inhibitor at room temperature in the reaction mixture. The reaction was stopped after 90 minutes at room temperature by the addition of 10 μL of ADP-GLO Reagent. After a 90 minute incubation, 20 uL of Kinase Detection Reagent was added. Samples were incubated for 40 minutes, after which plate well luminescence was measured on a Envision microplate reader. The IC50 determinations were made from a plot of the fractional velocity as a function of inhibitor concentration fit to the 4 parameters IC50 equation.

Chain of Cyclin-dependent kinase 6/G1/S-specific cyclin-D3 (Q00534 whole entry): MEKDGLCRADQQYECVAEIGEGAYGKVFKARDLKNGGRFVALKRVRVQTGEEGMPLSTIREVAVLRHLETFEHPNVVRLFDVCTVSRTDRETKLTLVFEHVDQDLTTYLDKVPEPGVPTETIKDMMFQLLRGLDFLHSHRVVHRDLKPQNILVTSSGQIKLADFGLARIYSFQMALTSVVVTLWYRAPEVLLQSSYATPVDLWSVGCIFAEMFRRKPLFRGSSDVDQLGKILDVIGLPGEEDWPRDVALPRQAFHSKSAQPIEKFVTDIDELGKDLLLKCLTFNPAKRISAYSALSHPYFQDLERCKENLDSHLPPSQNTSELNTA
Chain of Cyclin-dependent kinase 6/G1/S-specific cyclin-D3 (P30281 whole entry, further chain): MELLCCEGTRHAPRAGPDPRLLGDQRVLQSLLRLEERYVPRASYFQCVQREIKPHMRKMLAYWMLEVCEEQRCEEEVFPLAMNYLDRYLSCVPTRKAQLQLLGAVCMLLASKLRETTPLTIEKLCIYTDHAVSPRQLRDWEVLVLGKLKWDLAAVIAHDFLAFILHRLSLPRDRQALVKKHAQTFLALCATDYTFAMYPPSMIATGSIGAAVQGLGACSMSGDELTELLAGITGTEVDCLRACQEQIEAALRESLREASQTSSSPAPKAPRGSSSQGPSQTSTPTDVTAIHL

SMILES	IC50 [1] [nM]	IC50 [2] [nM]	IC50 [3]
Cc1cc2cnc(NC3CCN(S(C)(=O)=O)CC3)nc2c(N2CC3(CNCC3C(F)F)C2)n1 (stereo unspecified) [US20250235456, Compound 100]	< 200	< 200	< 200 nM
CS(=O)(=O)N1CCC(Nc2ncc3cc(C(F)F)nc(N4CC5(CCNCC5(F)F)C4)c3n2)CC1 [US20250235456, Compound 90]	< 200	–	< 200 nM
Cc1cc2cnc(NC3CCN(S(=O)(=O)C4CC4)CC3)nc2c(N2CC3(C2)CN(C2CC2)C3)n1 [US20250235456, Compound 48]	200 to 500	–	< 200 nM
Cc1cc2cnc(NC3CCN(S(=O)(=O)c4ccn(C)n4)CC3)nc2c(N2CC(F)(F)C3(CNC3)C2)n1 [US20250235456, Compound 94]	–	–	< 200 nM
Cc1cc2cnc(NC3CCN(S(=O)(=O)C4(C)CC4)CC3)nc2c(N2CCC3(CN(C)C3)C2)n1 [US20250235456, Compound 59]	< 200	–	< 200 nM
Cc1cc2cnc(NC3CCN(S(C)(=O)=O)CC3)nc2c(C2CC(C)(CO)C2)n1 (stereo unspecified) [US20250235456, Compound 69]	–	< 200	–
Cc1cc2cnc(NC3CCN(S(=O)(=O)C4CC4)CC3)nc2c(N2CC(OC3CC3)C2)n1 [US20250235456, Compound 57]	< 200	200 to 500	< 200 nM
CN1Cc2ccc(Nc3ncc4ccnc(N5CCC6(C5)CC6(F)F)c4n3)cc2C1 (stereo unspecified) [US20250235456, Compound 22]	< 200	< 200	< 200 nM
Cc1cc2cnc(Nc3cnn(CC4(N(C)C)CC4)c3)nc2c(N2CCC3(C2)CC3(F)F)n1 (stereo unspecified) [US20250235456, Compound 36]	–	> 2000	in the range around 350 nM
Cc1cc2cnc(NC3CC4CC3CN4C)nc2c(N2CCC3(C2)CC3(F)F)n1 (stereo unspecified) [US20250235456, Compound 43]	200 to 500	> 2000	in the range around 1250 nM
Cc1cc2cnc(NC3CCN(S(=O)(=O)CCC4(C)CC4)CC3)nc2c(N2CC(F)(F)C3(CNC3)C2)n1 [US20250235456, Compound 67]	200 to 500	200 to 500	< 200 nM
Cc1cc2cnc(NC3CCN(S(C)(=O)=O)CC3)nc2c(N2CC3(CN(C)CC3(F)F)C2)n1 [US20250235456, Compound 101]	< 200	200 to 500	< 200 nM
Cc1cc2cnc(NC3CCN(S(C)(=O)=O)CC3)nc2c(N2CC3(CNCC3(F)F)C2)n1 [US20250235456, Compound 85]	< 200	< 200	< 200 nM
Cc1cc2cnc(N[C@@H]3CCOC[C@H]3O)nc2c(N2CC(O)(C3CC3)C2)n1 [US20250235456, Compound 86]	200 to 500	> 2000	in the range around 350 nM
Cc1cc2cnc(NC3CCN(S(=O)(=O)C4CC4)CC3)nc2c(N2CC3(CC(O)C3)C2)n1 [US20250235456, Compound 66]	< 200	–	< 200 nM

Reference: BindingDB's records for patent US20250235456 (Iambic Therapeutics, 2025)
